Legend:
[1] = tested on: vascular smooth muscle cells; assay: Proliferation reaction of vascular smooth muscle cells by human TAT ([methyl 3H] thymidine uptake); assay type: cell-based, rat; details: serum-free; only some (TAT reactive) vascular smooth muscle cells respond
Protocol: Vascular smooth muscle cells were plated in a 96-well plate at a density of 2×10^3/well and cultured under the same condition as Example 1. After 3 days, the medium was changed with DMEM containing 0.05% bovine serum albumin. After culturing for one more day, the medium was changed again with new DMEM containing 0.05% bovine serum albumin and TAT was added thereto. After 20 hours from addition of TAT, 0.05 μCi/well [methyl 3H] thymidine was added thereto and the cells were cultured for 2 hours. After washing cells twice with 5% trichloroacetic acid, Super mix (PerkinElmer, Inc.) was added thereto and radioactivity derived from [methyl 3H] thymidine taken in cells was measured by Micro Beta (PerkinEimer, Inc.) (FIG. 1).

[2] = tested on: TAT reactive rat vascular smooth muscle cell clones; assay: Cell proliferation potency by TAT after GPC3 knockdown with shRNA adenovirus ([methyl 3H] thymidine uptake); assay type: cell-based; details: adenovirus infection at MOI=10; compared to cells infected GFPi or LacZ used as a control; FIG. 3
Protocol: Adenovirus carrying GFPi or GPC3i was added to cells on a 10 cm laboratory dish at infectious MOI=10 to infect. The cells were moved on a 24-well plate 1 day after infection and cultured under the absence of blood serum for 24 hours. After that, thymidine taken in cells by the stimulus of TAT was measured.
Each of adenovirus inserted shRNA of Glypican 3 (GPC3) (GPC3i), adenovirus inserted shRNA of Green fluorescent protein (GFP) (GFPi) and adenovirus not inserted shRNA (LacZ) was infected to TAT reactive rat vascular smooth muscle cell clones. Cell proliferation potency by TAT was measured by uptake of [methyl 3H] thymidine according an experiment method.

Substance	proliferation of vascular smooth muscle cells [1]	cell proliferation by stimulus of TAT [2]
thrombin-antithrombin III complex [TAT]	proliferate some cells of vascular smooth muscle cells at very low concentration	–
GPC3i: adenovirus inserted shRNA of Glypican 3 (GPC3), sequence SEQ ID: 2 (guide GAACTACACCAATGCCATGTT)	–	remarkably decreased

Source: US7759083B2, “Screening method for a growth inhibitor or promoter of a vascular smooth muscle cell” (Shionogi & Co., Ltd., priority 2004, dated 2010)
